Where “and” joins values, the source holds several entries; their conditions need not be identical. Identical values can stand only once.
System: Polygonatum cirrhifolium Royle seeds with emerged hypocotyl
Assay: Synchronization of germination: release of epicotyl, coleoptile and radicle from seeds with emerged hypocotyl
Type: in vivo
Details: modified MS culture medium, 20° C., 16 hr photoperiod
Procedure: Germination was evaluated every three days by examining seeds for hypocotyl emergence. […] Seeds with emerged hypocotyl were transferred under aseptic conditions to the above defined basal culture medium containing gibberellic acid at 5, 25, 50 and 100 mg/L. Transferred plants were incubated in an environment having 8-16-hr days under about 2000 lux of light and about 8-16-hr nights in total darkness at a constant temperature of 20° C. ([…]) and at 50-60% RH. Illumination was provided by 40-watt cool, white fluorescent tubes. Germination synchronization as indicated by differentiated epicotyl with emergent coleoptile and radicle was recorded on daily basis. The consequent step of synchronization of germination is presented in table 3 in which epicotyl with emergent coleoptile and radicle is manifest under 8-16 hr photoperiod (light intensity 2000-3500 lux) at an incubation temperature of 20° C. (RH 50-60%). In this experiment seeds with emerged hypocotyl were transferred to the culture to modified MS basal culture medium containing of 2.2 g/L NH4NO3, 2.0 g/L KNO3, 0.44 g/l CaCl2.2H2P, 0.37 g/L MgSO4.7H20, 0.17 g/L KH2PO4, 37.25 mg/L Na2 EDTA, 27.8 mg/L FeSO4.7H20, 0.83 mg/L KI, 6.2 mg/L H3BO3, 22.3 mg/L MnSO4.4H20, 8.6 mg/L ZnSO4.7H20, 0.25 mg/L Na2MoO4.2H20, 0.025 mg/L CuSO4.5H2O, 0.025 mg/L CoCl2.6H20, 250 mg/L myo-inositol, 0.5 mg/L nicotinic acid, 0.5 mg/L pyridoxine HCl, 3 mg/L thiamine HCl, 2 mg/L glycine, 30 g/L sucrose and 7.5 g/L agar and supplemented with 4 concentrations of GA3 viz. […], 25, 50 and 100 mg/L. Cultures were incubated at 20° C. under 16 hr photoperiod in a growth chamber. there were four treatments in total and each treatment consisted of 15 replicates with 4 seeds with emerged hypocotyl in each replicate. The effect of various treatments on the release of epicotyl, coleoptile radicle and days to release/synchronization is described in table 3.100 mg/L of GA3 results in 100% synchronization after 11 days of culture.

## C=C1C[C@]23C[C@@]1(O)CC[C@H]2[C@@]12C=C[C@H](O)[C@@](C)(C(=O)O1)[C@H]2[C@@H]3C(=O)O [GA3, gibberellic acid]
GA3 10 mg/L
  Days to release epicotyl, coleoptile & radicle: 21 days
  Percent seeds with epicotyl, coleoptile & radicle: 23.71 ± 2.00%
GA3 25 mg/L
  Days to release epicotyl, coleoptile & radicle: 18 days
  Percent seeds with epicotyl, coleoptile & radicle: 78.23 ± 3.11%
GA3 50 mg/L
  Days to release epicotyl, coleoptile & radicle: 14 days
  Percent seeds with epicotyl, coleoptile & radicle: 100.00 ± 0.00%
GA3 100 mg/L
  Days to release epicotyl, coleoptile & radicle: 11 days
  Percent seeds with epicotyl, coleoptile & radicle: 100% and 100.00 ± 0.00%
